Measured values taken from patent US8633019B2, “Methods for treating spinal muscular atrophy” (PTC Therapeutics, Inc., priority 2008, dated 2014).

The compounds below were run on inclusion of exon 7 of SMN2 into mRNA transcribed from the SMN2-A minigene (assay: Fold Activation: luciferase reporter, SMN2-A minigene construct versus SMN2-G minigene construct, in stably transfected HEK293H cells). Settings: ratio of First Activation using the SMN2-A construct divided by Second Activation using the SMN2-G construct.
Assay type: cell-based, human
Excerpt: In a specific embodiment, the first cell and the second cell are the same cell type. In some embodiments, the first cell and the second cell are the same cell type and are obtained from the same source or clone. In some embodiments, the first reporter gene and the second reporter gene are the same reporter gene. In other embodiments, the first reporter gene and second reporter gene are different reporter genes. A compound that increases the inclusion of exon 7 of SMN2 into mRNA transcribed from the SMN2 gene will result in a Fold Activation derived from a higher ratio of the First Activation:
[formula] [formula] [formula] In some embodiments, both the amount and activity of the first and second fusion proteins are detected. Accordingly, as used herein, the Fold Activation for a compound that modulates the inclusion of exon 7 of SMN2 into mRNA transcribed from the SMN2 gene is a ratio of the First Activation divided by the Second Activation.
The HEK293H cell line stably transfected with the SMN2-A minigene construct was utilized in the HTS. HTS was performed by plating 10,000 cells in each well of a 384-well plate. Each 384-well plate contained 64 control wells used as an internal standard: 16 wells were used as a total control (no test compound, only compound solvent), 16 wells were used as reference standards representing background readings (high inhibitor concentration) and 32 wells were prepared to provide an 8-point dose response curve of puromycin as a non-specific standard control inhibitor. The remaining 320 wells contained individual test compounds. The cells were grown overnight in the presence of test compounds or controls at 37° C. in 5% CO2. After 24 hours, the amount of luminescence was determined using a ViewLux Imaging system (Perkin Elmer).
Using the SMN2-A minigene construct, a HTS was performed testing a compound library. The amount of the fusion protein expressed from the minigene construct was determined by measuring luciferase activity as described herein. […] Enhancers of fusion protein expression were defined as those compounds that increased luciferase activity by at least three standard deviations above the mean. Based on this analysis, test compounds of Formula (I) were identified as hits and were subsequently confirmed by testing the compounds under the same conditions as in the original HTS. To ensure that the increase in luciferase activity detected in the HTS was due to increased inclusion of exon 7 of SMN2 into mRNA transcripts from the SMN2-A minigene construct, each compound was tested in two different cell lines: the cell line, which was used in the original HTS (HEK293H containing the SMN2-A minigene construct), and a HEK293H cell line that contained the SMN2-G minigene construct.
Each compound was tested at four concentrations: 15 μM, 3 μM, 0.6 μM, 0.12 μM.
The Fold Activation results are provided as a ratio of a First Activation using the SMN-2A construct divided by a Second Activation using the SMN-2G construct, wherein 1 star (*) represents active compounds with a fold increase ratio between 1.1-1.3; 2 stars (**) represent active compounds with a fold increase ratio between 1.3-2.0; 3 stars (***) represent active compounds with a fold increase ratio greater than 2.0.
For `O=C(O)c1ccc2oc(-c3ccc(Br)cc3)nc2c1` [Cpd 35, 2-(4-bromo-phenyl)-benzooxazole-5-carboxylic acid], the “Activity (Fold Activation)” value was “** (2 stars (**) represent active compounds with a fold increase ratio between 1.3-2.0)”.
In the case of `NC(=O)c1cccc(-c2nc3ccc(N4CCCCC4)cc3o2)c1` [Cpd 110, 3-(6-piperidin-1-yl-benzooxazol-2-yl)-benzamide], the “Activity (Fold Activation)” value is reported as “* (1 star (*) represents active compounds with a fold increase ratio between 1.1-1.3)”.
`O=C(O)c1ccc2oc(-c3ccc(N4CCCC4=O)cc3)nc2c1` [Cpd 28, 2-[4-(2-oxo-pyrrolidin-1-yl)-phenyl]-benzooxazole-5-carboxylic acid] was tested, and the “Activity (Fold Activation)” value was “** (2 stars (**) represent active compounds with a fold increase ratio between 1.3-2.0)”.
For `O=C(O)c1cccc(-c2nc3ccc(N4CCCCC4)cc3o2)c1` [Cpd 41, 3-(6-piperidin-1-yl-benzooxazol-2-yl)-benzoic acid], the “Activity (Fold Activation)” value was “*** (3 stars (***) represent active compounds with a fold increase ratio greater than 2.0)”.
`O=C(O)c1cccc(-c2nc3ccc(Oc4ccccc4)cc3o2)c1` [Cpd 82, 3-(6-phenoxy-benzooxazol-2-yl)-benzoic acid] was tested, and the “Activity (Fold Activation)” value was “** (2 stars (**) represent active compounds with a fold increase ratio between 1.3-2.0)”.
With `O=C(O)c1ccc2nc(-c3ccc(N4CCC4)nc3)oc2c1` [Cpd 93, 2-(6-azetidin-1-yl-pyridin-3-yl)-benzooxazole-6-carboxylic acid] the “Activity (Fold Activation)” value was “** (2 stars (**) represent active compounds with a fold increase ratio between 1.3-2.0)”.
`O=C(O)c1ccc2oc(-c3ccc(F)cc3)nc2c1` [Cpd 55, 2-(4-fluoro-phenyl)-benzooxazole-5-carboxylic acid] was tested, and the “Activity (Fold Activation)” value was “* (1 star (*) represents active compounds with a fold increase ratio between 1.1-1.3)”.
For `O=C(O)c1cccc(-c2nc3cc(-c4cc5ccccc5o4)ccc3o2)c1` [Cpd 31, 3-(5-benzofuran-2-yl-benzooxazol-2-yl)-benzoic acid], the “Activity (Fold Activation)” value was “** (2 stars (**) represent active compounds with a fold increase ratio between 1.3-2.0)”.
With `Cc1cc(-c2nc3ccc(C(=O)O)cc3o2)c(C)o1` [Cpd 67, 2-(2,5-dimethyl-furan-3-yl)-benzooxazole-6-carboxylic acid] the “Activity (Fold Activation)” value was “** (2 stars (**) represent active compounds with a fold increase ratio between 1.3-2.0)”.
With `O=C(O)c1ccc2oc(-c3ccc(N4CCCC4)nc3)nc2c1` [Cpd 89, 2-(6-pyrrolidin-1-yl-pyridin-3-yl)-benzooxazole-5-carboxylic acid] the “Activity (Fold Activation)” value was “*** (3 stars (***) represent active compounds with a fold increase ratio greater than 2.0)”.
`O=C(O)c1cccc(-c2nc3ccc(N4CCC4)cc3o2)c1` [Cpd 52, 3-(6-azetidin-1-yl-benzooxazol-2-yl)-benzoic acid] was tested, and the “Activity (Fold Activation)” value was “** (2 stars (**) represent active compounds with a fold increase ratio between 1.3-2.0)”.
With `CN(Cc1ccccc1)c1ccc2nc(-c3cccc(C(=O)O)c3)oc2c1` [Cpd 102, 3-[6-(benzyl-methyl-amino)-benzooxazol-2-yl]-benzoic acid] the “Activity (Fold Activation)” value was “** (2 stars (**) represent active compounds with a fold increase ratio between 1.3-2.0)”.
For `CC(C)c1ccc(-c2ccc3oc(-c4cccc(C(=O)O)c4)nc3c2)cc1` [Cpd 36, 3-[5-(4-isopropyl-phenyl)-benzooxazol-2-yl]-benzoic acid], the “Activity (Fold Activation)” value was “** (2 stars (**) represent active compounds with a fold increase ratio between 1.3-2.0)”.
`O=C(O)c1ccc2oc(-c3ccc(N4CCCCC4)nc3)nc2c1` [Cpd 91, 2-(3,4,5,6-tetrahydro-2H-[1,2′]bipyridinyl-5′-yl)-benzooxazole-5-carboxylic acid] was tested, and the “Activity (Fold Activation)” value was “** (2 stars (**) represent active compounds with a fold increase ratio between 1.3-2.0)”.
`CCC(C)(C)c1ccc2oc(-c3cccc(C(=O)O)c3)nc2c1` [Cpd 22, 3-[5-(1,1-dimethyl-propyl)-benzooxazol-2-yl]-benzoic acid] was tested, and the “Activity (Fold Activation)” value was “** (2 stars (**) represent active compounds with a fold increase ratio between 1.3-2.0)”.
With `O=C(O)c1ccc2oc(-c3ccc4c(c3)OCO4)nc2c1` [Cpd 26, 2-benzo[1,3]dioxol-5-yl-benzooxazole-5-carboxylic acid] the “Activity (Fold Activation)” value was “** (2 stars (**) represent active compounds with a fold increase ratio between 1.3-2.0)”.
`Cc1ccc2nc(-c3ccc(C(=O)O)cc3)oc2c1` [Cpd 11, 4-(6-methyl-benzooxazol-2-yl)-benzoic acid] was tested, and the “Activity (Fold Activation)” value was “** (2 stars (**) represent active compounds with a fold increase ratio between 1.3-2.0)”.
`O=C(O)c1ccc2oc(-c3cccc(OC(F)(F)F)c3)nc2c1` [Cpd 105, 2-(3-trifluoromethoxy-phenyl)-benzooxazole-5-carboxylic acid] was tested, and the “Activity (Fold Activation)” value was “* (1 star (*) represents active compounds with a fold increase ratio between 1.1-1.3)”.
For `COc1ccc(-c2nc3cc(C(=O)O)ccc3o2)cc1` [Cpd 39, 2-(4-methoxy-phenyl)-benzooxazole-5-carboxylic acid], the “Activity (Fold Activation)” value was “** (2 stars (**) represent active compounds with a fold increase ratio between 1.3-2.0)”.
With `O=C(O)c1cccc(-c2nc3cc(-c4ccc(OC(F)(F)F)cc4)ccc3o2)c1` [Cpd 29, 3-[5-(4-trifluoromethoxy-phenyl)-benzooxazol-2-yl]-benzoic acid] the “Activity (Fold Activation)” value was “** (2 stars (**) represent active compounds with a fold increase ratio between 1.3-2.0)”.
